Data reported in patent US9598362B2, “Benzidine derivative, method for preparing same, and pharmaceutical composition containing benzidine derivative for treating liver disease caused by hepatitis C virus” (priority 2013, dated 2017).
Where two headings read alike, the source gives them in different places.

Tests used:
[1] = test system: HCV (JFH-5aFlucm4); assay: Evaluation of anti-HCV activity 1: huh7.5.1 cells inoculated with HCV carrying renilla luciferase reporter; format: cell-based; conditions: Hepatitis C virus
Description: To evaluate the anti-HCV activity of the compound represented by formula 1 of the present invention, the following experiment was performed.
The hepatoma cell line huh7.5.1 was distributed in a 12-well cell culture plate at the density of 50,000 cells/well. The cells were cultured in DMEM (Dulbecco's Modified Eagle's Medium 12800-017, GIBCO Co.) supplemented with 10% (v/v) FBS (Fetal Bovine Serum SH30406.02, Hyclone Co.) and 1% (v/v) antibiotics (penicillin/streptomycin solution SV30010, Hyclone Co.) in a 37° C. 6.0% CO2 incubator (CO2 Incubator 311, Forma Scientific Co, Lnc. USA) for 24 hours to lead cell attachment on the plate. Then, the cells were inoculated with HCV (JFH-5aFlucm4, PLoS One. 2011; 6(8):e228808.) having renilla luciferase gene as a reporter for 3 hours. Upon completion of the virus inoculation, the cell culture medium was replaced with the medium containing the compounds prepared in Examples 1˜24 at the concentration of 1 μM each. The cells were cultured in a 37° C. 6.0% CO2 incubator (CO2 Incubator 311, Forma Scientific Co, Lnc. USA) for 3 days. Three days after the infection, the cell culture medium was collected to measure the cytotoxicity in the following Experimental Example 3. The cells attached on the plate were washed with PBS (phosphate buffered saline) and then lysed by treating 100 μl of 1× passive lysis buffer (Promega, E1941). The cell lysate (10 μl) was added to renilla luciferase assay reagent (50 μl) in renilla luciferase assay system (Promega, E2820), followed by measurement of luminescence for 10 seconds using the luciferase measure program with Luminometer (GLOMAX 20/20 Luminometer, Promega). At this time, the measurement of luminescence was performed in triplicate with the groups treated with the compounds of Examples 1˜24 and the non-treated control group. The mean value was calculated and compared. The luminescence of each compound over the concentration was converted into EC50 (half maximal effective concentration) by using sigma plot program, and the results are shown in Table 2.

[2] = test system: HCV replicon NK/R2AN; assay: Evaluation of anti-HCV activity 2: inhibition of HCV replication, huh7.5.1 cells with replicon NK/R2AN, renilla luciferase; format: cell-based; conditions: for EC50: Hepatitis C virus; for EC50 (in words): duplicated HCV treated with compound
Description: To evaluate the anti-HCV activity, that is the activity to inhibit HCV replication, of the compound represented by formula 1 of the present invention, the following experiment was performed.
The hepatoma cell line huh7.5.1 having NK/R2AN, the replicon with which the replication and translation of HCV could be measured, was distributed in a 12-well cell culture plate at the density of 50,000 cells/well. The cells were cultured in DMEM (Dulbecco's Modified Eagle's Medium 12800-017, GIBCO Co.) supplemented with 10% (v/v) FBS (Fetal Bovine Serum SH30406.02, Hyclone Co.), 1% (v/v) antibiotics (penicillin/streptomycin solution SV30010, Hyclone Co.), and G418 (600 μg/mL, Calbiochem) in a 37° C. 6.0% CO2 incubator (CO2 Incubator 311, Forma Scientific Co, Lnc. USA) for 24 hours to lead cell attachment on the plate. Then, the cells were inoculated with HCV having renilla luciferase gene as a reporter for 3 hours. Upon completion of the virus inoculation, the cell culture medium was replaced with the medium containing the compounds prepared in Examples 1˜24 were added to the culture medium at the concentrations of 40 pM˜1 μM each. The cells were cultured in a 37° C. 6.0% CO2 incubator (CO2 Incubator 311, Forma Scientific Co, Lnc. USA) for 3 days. Three days after the infection, the cell culture medium was collected to measure the cytotoxicity in the following Experimental Example 3. The cells attached on the plate were washed with PBS (phosphate buffered saline) and then lysed by treating 100 μl of 1× passive lysis buffer (Promega, E1941). The cell lysate (10 μl) was added to renilla luciferase assay reagent (50 μl) in renilla luciferase assay system (Promega, E2820), followed by measurement of luminescence for 10 seconds using the luciferase measure program with Luminometer (GLOMAX 20/20 Luminometer, Promega). At this time, the measurement of luminescence was performed in triplicate with the groups treated with the compounds of Examples 1˜24 and the non-treated control group. The mean value was calculated and compared. The luminescence of each compound over the concentration was converted into EC50 (half maximal effective concentration) by using sigma plot program, and the results are shown in Table 3. At this time, when EC50 was under 100 pM, it was marked as A; when EC50 was in the range of 100 pM 1 nM, it was marked as B; when EC50 was in the range of 1 nM˜100 nM, it was marked as C; and when EC50 was over 100 nM, it was marked as D. The results are shown in Table 3.

[3] = Huh-7.5.1, 72 h, read-out: EC50 grade
[4] = Huh-7.5.1, replicon huh7.5.1 cells, Table 3, read-out: EC50

Question: What does the source list for `COC(=O)N[C@@H](C(=O)N1CC(=O)C[C@H]1C(=O)Nc1ccc(-c2ccc(NC(=O)[C@@H]3CC(=O)CN3C(=O)[C@H](NC(=O)OC)c3ccccc3)cc2)cc1)c1ccccc1` [Example 9, dimethyl((1R,1′R)-((5S,5′S)-5,5′-(([1,1′-biphenyl]-4,4′-diylbis(azandiyl))bis(carbonyl))bis(3-oxopyrrolidine-5,1-diyl))bis(2-oxo-1-phenylethane-2,1-diyl))dicarbamate]?
Answer: EC50 ([1]; Huh-7.5.1): < 1 nM; EC50 [1, 3]: < 1 nM; EC50 ([2]; Huh-7.5.1): < 0.1 nM; EC50 [2, 3]: < 0.1 nM; EC50 (in words) [2]: significantly low

Question: With `COC(=O)N[C@@H](C(=O)N1CCCC[C@H]1C(=O)Nc1ccc(-c2ccc(NC(=O)[C@@H]3CCCCN3C(=O)[C@H](NC(=O)OC)c3ccccc3)cc2)cc1)c1ccccc1` [Example 10, dimethyl((1R,1′R)-((2S,2′S)-2,2′-(([1,1′-biphenyl]-4,4′-diylbis(azandiyl))bis(carbonyl))bis(piperidine-2,1-diyl))bis(2-oxo-1-phenylethane-2,1-diyl))dicarbamate] as the molecule, how does the EC50 [1, 3] read?
Answer: > 100 nM

Question: And the EC50 [2, 3]?
Answer: 1 to 100 nM

Question: Which EC50 [1, 3] does the source give for `COC(=O)N[C@@H](C(=O)N1CCCC[C@@H]1C(=O)Nc1ccc(-c2ccc(NC(=O)[C@H]3CCCCN3C(=O)[C@H](NC(=O)OC)c3ccccc3)cc2)cc1)c1ccccc1` [Example 11, dimethyl((1R,1′R)-((2R,2′R)-2,2′-(([1,1′-biphenyl]-4,4′-diylbis(azandiyl))bis(carbonyl))bis(piperidine-2,1-diyl))bis(2-oxo-1-phenylethane-2,1-diyl))dicarbamate] here?
Answer: > 100 nM

Question: And the EC50 [2, 3]?
Answer: > 100 nM

Question: For `COC(=O)N[C@@H](C(=O)N1CCC[C@]1(C)C(=O)Nc1ccc(-c2ccc(NC(=O)[C@@]3(C)CCCN3C(=O)[C@H](NC(=O)OC)c3ccccc3)cc2)cc1)c1ccccc1` [Example 12, dimethyl((1R,1′R)-((2S,2′S)-2,2′-(([1,1′-biphenyl]-4,4′-diylbis(azandiyl))bis(carbonyl))bis(2-methylpyrrolidine-2,1-diyl))bis(2-oxo-1-phenylethane-2,1-diyl))dicarbamate], which EC50 [1, 3] is on record?
Answer: > 100 nM

Question: And the EC50 [2, 3]?
Answer: 1 to 100 nM

Question: `CN(C)[C@@H](C(=O)N1CCC[C@H]1C(=O)Nc1ccc(-c2ccc(NC(=O)[C@@H]3CCCN3C(=O)[C@@H](c3ccccc3)N(C)C)cc2)cc1)c1ccccc1` [Example 14, (S,2S,2′S)—N,N′-(biphenyl-4,4′-diyl)bis(1-((S)-2-(dimethylamino)-2-phenylacetyl)pyrrolidine-2-carboxamide)] was tested. Which EC50 [1, 3] did it give?
Answer: 1 to 100 nM

Question: What about the EC50 [2, 3] of the same molecule?
Answer: 0.1 to 1 nM

Question: `CCN(CC)[C@@H](C(=O)N1CCC[C@H]1C(=O)Nc1ccc(-c2ccc(NC(=O)[C@@H]3CCCN3C(=O)[C@@H](c3ccccc3)N(CC)CC)cc2)cc1)c1ccccc1` [Example 15, (S,2S,2′S)—N,N-(biphenyl-4,4′-diyl)bis(1-((S)-2-(diethylamino)-2-phenylacetyl)pyrrolidine-2-carboxamide)] was tested. Which EC50 [1, 3] did it give?
Answer: 1 to 100 nM

Question: And the EC50 [2, 3]?
Answer: 0.1 to 1 nM

Question: With `COC(=O)N[C@@H](C(=O)N1CSC[C@H]1C(=O)Nc1ccc(-c2ccc(NC(=O)[C@@H]3CSCN3C(=O)[C@H](NC(=O)OC)c3ccccc3)cc2)cc1)c1ccccc1` [Example 21, dimethyl(1S,1S′)-2,2′-((4R,4R)-4,4′-(biphenyl-4,4′-diylbis(azandiyl))bis(oxomethylene)bis(thiazolidine-4,3-diyl))bis(2-oxo-1-phenylethane-2,1-diyl)bicarbamate] as the molecule, how does the EC50 [1, 3] read?
Answer: 1 to 100 nM

Question: What about the EC50 ([2]; Huh-7.5.1) of the same molecule?
Answer: < 0.1 nM

Question: What about the EC50 [2, 3] of the same molecule?
Answer: < 0.1 nM

Question: What about the “EC50 (in words)” value [2] of the same molecule?
Answer: significantly low

Question: With `COC(=O)N[C@@H](C(=O)N1CCC[C@H]1C(=O)Nc1ccc2c(c1)C(F)(F)c1cc(NC(=O)[C@@H]3CCCN3C(=O)[C@H](NC(=O)OC)c3ccccc3)ccc1-2)c1ccccc1` [Example 22, dimethyl((1R,1′R)-((2S,2′S)-2,2′-(((9,9-difluoro-9H-fluorene-2,7-diyl)bis(azandiyl))bis(carbonyl))bis(pyrrolidine-2,1-diyl))bis(2-oxo-1-phenylethane-2,1-diyl))dicarbamate] as the molecule, how does the EC50 ([1]; Huh-7.5.1) read?
Answer: < 1 nM

Question: What about the EC50 [1, 3] of the same molecule?
Answer: < 1 nM

Question: What about the EC50 [2, 3] of the same molecule?
Answer: < 0.1 nM

Question: And the EC50 [2, 4]?
Answer: < 0.1 nM

Question: What about the “EC50 (in words)” value [2] of the same molecule?
Answer: significantly low

Question: Which results are given for `COC(=O)N[C@@H](C(=O)N1CCC[C@H]1C(=O)Nc1ccc2c(c1)C(C)(C)c1cc(NC(=O)[C@@H]3CCCN3C(=O)[C@H](NC(=O)OC)c3ccccc3)ccc1-2)c1ccccc1` [Example 23, dimethyl((1R,1′R)-((2S,2′S)-2,2′-(((9,9-dimethyl-9H-fluorene-2,7-diyl)bis(azandiyl))bis(carbonyl))bis(pyrrolidine-2,1-diyl))bis(2-oxo-1-phenylethane-2,1-diyl))dicarbamate]?
Answer: EC50 ([1]; Huh-7.5.1): < 1 nM; EC50 [1, 3]: < 1 nM; EC50 [2, 3]: < 0.1 nM; EC50 [2, 4]: < 0.1 nM; EC50 (in words) [2]: significantly low

Question: For `COC(=O)N[C@@H](C(=O)N1CCC[C@H]1C(=O)Nc1ccc2c(c1)C(=O)c1cc(NC(=O)[C@@H]3CCCN3C(=O)[C@H](NC(=O)OC)c3ccccc3)ccc1-2)c1ccccc1` [Example 24, dimethyl((1R,1′R)-((2S,2′S)-2,2′-(((9-oxo-9H-fluorene-2,7-diyl)bis(azandiyl))bis(carbonyl))bis(pyrrolidine-2,1-diyl))bis(2-oxo-1-phenylethane-2,1-diyl))dicarbamate], which EC50 [1, 3] is on record?
Answer: 1 to 100 nM

Question: And the EC50 [2, 3]?
Answer: < 0.1 nM

Question: What about the EC50 [2, 4] of the same molecule?
Answer: < 0.1 nM

Question: And the “EC50 (in words)” value [2]?
Answer: significantly low
